Measurements as given in PubChem BioAssay (NCI).
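Cells were grown in 96-well plates and exposed to each compound for 48 hours at five concentrations; endpoints were interpolated linearly between bracketing concentrations, or set to the highest concentration if not reached. TGI: concentration producing complete growth inhibition.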

Experiments:
Test in all cases: NCI anticancer screen, dose series, 48 h
[1] = tested on: ACHN renal
[2] = tested on: SK-OV-3 ovarian
[3] = tested on: HCT-15 colon
[4] = tested on: A549 NSCLC
[5] = tested on: SF-268 CNS
[6] = tested on: HOP-92 NSCLC
[7] = tested on: UACC-257 melanoma
[8] = tested on: OVCAR-8 ovarian
[9] = tested on: M14 melanoma
[10] = tested on: NCI-H460 lung
[11] = tested on: SK-MEL-5 melanoma
[12] = tested on: SR leukemia
[13] = tested on: HS 578T breast
[14] = tested on: NCI-H226 lung
[15] = tested on: BT-549 breast
[16] = tested on: SW-620 colon
[17] = tested on: OVCAR-5 ovarian
[18] = tested on: RPMI-8226 leukemia
[19] = tested on: HL-60(TB) leukemia
[20] = tested on: NCI-H23 lung
[21] = tested on: K-562 leukemia
[22] = tested on: DU-145 prostate
[23] = tested on: SF-295 CNS
[24] = tested on: 786-0 renal
[25] = tested on: MCF7 breast
[26] = tested on: CAKI-1 renal
[27] = tested on: HOP-62 NSCLC
[28] = tested on: KM12 colon
[29] = tested on: SK-MEL-28 melanoma
[30] = tested on: MDA-MB-231 breast
[31] = tested on: T-47D breast
[32] = tested on: MALME-3M melanoma
[33] = tested on: OVCAR-4 ovarian
[34] = tested on: PC-3 prostate
[35] = tested on: OVCAR-3 ovarian
[36] = tested on: MDA-N
[37] = tested on: MDA-MB-435
[38] = tested on: SN12C renal
[39] = tested on: HT29 colon
[40] = tested on: UO-31 renal
[41] = tested on: UACC-62 melanoma
[42] = tested on: HCT-116 colon
[43] = tested on: COLO 205 colon
[44] = tested on: CCRF-CEM leukemia
[45] = tested on: SF-539 CNS
[46] = tested on: SNB-19 CNS
[47] = tested on: NCI/ADR-RES ovarian
[48] = tested on: LOX IMVI melanoma
[49] = tested on: TK-10 renal
[50] = tested on: U251 CNS
[51] = tested on: MOLT-4 leukemia
[52] = tested on: SNB-75 CNS
[53] = tested on: RXF 393 renal
[54] = tested on: A498 renal
[55] = tested on: IGROV1 ovarian
[56] = tested on: EKVX NSCLC
[57] = tested on: NCI-H522 lung
[58] = tested on: HCC-2998 colon
[59] = tested on: SK-MEL-2 melanoma

Q: Which results are given for `Cc1nnc2nc(-c3ccc(Cl)cc3Cl)cc(-c3ccc(Cl)cc3)n12`?
A: TGI [1]: > 100 µM; TGI [2]: > 100 µM; TGI [3]: > 100 µM; TGI [4]: > 100 µM; TGI [5]: > 100 µM; TGI [6]: 37.7 µM; TGI [7]: > 100 µM; TGI [8]: > 100 µM; TGI [9]: > 100 µM; TGI [10]: > 100 µM; TGI [11]: > 100 µM; TGI [12]: > 100 µM; TGI [13]: > 100 µM; TGI [14]: > 100 µM; TGI [15]: > 100 µM; TGI [16]: > 100 µM; TGI [17]: > 100 µM; TGI [18]: > 100 µM; TGI [19]: > 100 µM; TGI [20]: > 100 µM; TGI [21]: > 100 µM; TGI [22]: > 100 µM; TGI [23]: > 100 µM; TGI [24]: > 100 µM; TGI [25]: > 100 µM; TGI [26]: > 100 µM; TGI [27]: > 100 µM; TGI [28]: > 100 µM; TGI [29]: 40.8 µM; TGI [30]: > 100 µM; TGI [31]: > 100 µM; TGI [32]: > 100 µM; TGI [33]: 39.6 µM; TGI [34]: > 100 µM; TGI [35]: > 100 µM; TGI [36]: > 100 µM; TGI [37]: > 100 µM; TGI [38]: > 100 µM; TGI [39]: 42.3 µM; TGI [40]: > 100 µM; TGI [41]: > 100 µM; TGI [42]: > 100 µM; TGI [43]: 49.6 µM; TGI [44]: > 100 µM; TGI [45]: > 100 µM; TGI [46]: > 100 µM; TGI [47]: > 100 µM; TGI [48]: > 100 µM; TGI [49]: > 100 µM; TGI [50]: > 100 µM; TGI [51]: 96 µM

Q: Which TGI [1] does the source give for `CN[C@@H]1[C@H](O)[C@H](NC)[C@H]2O[C@@]3(O)C(=O)C[C@@H](C)O[C@H]3O[C@@H]2[C@H]1O` here?
A: > 100 µM

Q: What about the TGI [2] of the same compound?
A: > 100 µM

Q: What about the TGI [3] of the same compound?
A: > 100 µM

Q: And the TGI [5]?
A: > 100 µM

Q: What about the TGI [6] of the same compound?
A: > 100 µM

Q: And the TGI [7]?
A: > 100 µM

Q: What about the TGI [8] of the same compound?
A: > 100 µM

Q: And the TGI [9]?
A: > 100 µM

Q: And the TGI [10]?
A: > 100 µM

Q: What about the TGI [11] of the same compound?
A: > 100 µM

Q: And the TGI [52]?
A: > 100 µM

Q: What about the TGI [12] of the same compound?
A: > 100 µM

Q: And the TGI [13]?
A: > 100 µM

Q: And the TGI [14]?
A: > 100 µM

Q: What about the TGI [53] of the same compound?
A: > 100 µM

Q: And the TGI [15]?
A: > 100 µM

Q: What about the TGI [16] of the same compound?
A: > 100 µM

Q: What about the TGI [17] of the same compound?
A: > 100 µM

Q: And the TGI [54]?
A: > 100 µM

Q: What about the TGI [18] of the same compound?
A: > 100 µM

Q: What about the TGI [19] of the same compound?
A: > 100 µM

Q: And the TGI [20]?
A: > 100 µM

Q: And the TGI [21]?
A: > 100 µM

Q: What about the TGI [22] of the same compound?
A: > 100 µM

Q: What about the TGI [23] of the same compound?
A: > 100 µM

Q: And the TGI [25]?
A: > 100 µM

Q: And the TGI [26]?
A: > 100 µM

Q: And the TGI [27]?
A: > 100 µM

Q: And the TGI [28]?
A: > 100 µM

Q: And the TGI [29]?
A: > 100 µM

Q: And the TGI [55]?
A: > 100 µM

Q: What about the TGI [30] of the same compound?
A: > 100 µM

Q: What about the TGI [31] of the same compound?
A: > 100 µM

Q: And the TGI [32]?
A: > 100 µM

Q: And the TGI [33]?
A: > 100 µM

Q: And the TGI [34]?
A: > 100 µM

Q: What about the TGI [35] of the same compound?
A: > 100 µM

Q: And the TGI [36]?
A: > 100 µM

Q: And the TGI [37]?
A: > 100 µM

Q: What about the TGI [38] of the same compound?
A: > 100 µM

Q: What about the TGI [39] of the same compound?
A: > 100 µM

Q: What about the TGI [40] of the same compound?
A: > 100 µM

Q: What about the TGI [41] of the same compound?
A: > 100 µM

Q: What about the TGI [42] of the same compound?
A: > 100 µM

Q: And the TGI [43]?
A: > 100 µM

Q: And the TGI [56]?
A: > 100 µM

Q: What about the TGI [44] of the same compound?
A: > 100 µM

Q: And the TGI [57]?
A: > 100 µM

Q: What about the TGI [45] of the same compound?
A: > 100 µM

Q: What about the TGI [58] of the same compound?
A: > 100 µM

Q: And the TGI [46]?
A: > 100 µM

Q: And the TGI [47]?
A: > 100 µM

Q: What about the TGI [48] of the same compound?
A: > 100 µM

Q: And the TGI [50]?
A: > 100 µM

Q: And the TGI [51]?
A: > 100 µM

Q: With `CN(C)c1ncc(-c2c[nH]c3ccccc23)nc1-c1c[nH]c2ccccc12` as the compound, how does the TGI [1] read?
A: 6.88 µM

Q: And the TGI [2]?
A: 20.4 µM

Q: What about the TGI [3] of the same compound?
A: 16.4 µM

Q: What about the TGI [4] of the same compound?
A: 19.4 µM

Q: And the TGI [5]?
A: 25 µM

Q: What about the TGI [6] of the same compound?
A: 8.33 µM

Q: What about the TGI [7] of the same compound?
A: 3.89 µM

Q: What about the TGI [8] of the same compound?
A: 23 µM

Q: And the TGI [9]?
A: 3.99 µM

Q: And the TGI [10]?
A: 4.99 µM

Q: What about the TGI [11] of the same compound?
A: 15.9 µM

Q: And the TGI [52]?
A: 5.59 µM

Q: And the TGI [12]?
A: 10.8 µM

Q: And the TGI [13]?
A: 9.5 µM

Q: What about the TGI [53] of the same compound?
A: 4.11 µM

Q: What about the TGI [15] of the same compound?
A: 49.1 µM

Q: What about the TGI [16] of the same compound?
A: 11.8 µM

Q: What about the TGI [17] of the same compound?
A: 16.9 µM

Q: What about the TGI [54] of the same compound?
A: 4.56 µM

Q: What about the TGI [18] of the same compound?
A: > 100 µM

Q: What about the TGI [19] of the same compound?
A: > 100 µM

Q: What about the TGI [21] of the same compound?
A: 8.48 µM

Q: What about the TGI [22] of the same compound?
A: 20.9 µM

Q: What about the TGI [23] of the same compound?
A: 6.48 µM

Q: What about the TGI [24] of the same compound?
A: 4.07 µM

Q: What about the TGI [25] of the same compound?
A: 12.9 µM

Q: And the TGI [26]?
A: 11 µM

Q: And the TGI [59]?
A: 12.8 µM

Q: And the TGI [27]?
A: 22 µM

Q: And the TGI [28]?
A: 5.3 µM

Q: And the TGI [29]?
A: 5.73 µM

Q: What about the TGI [55] of the same compound?
A: 13.5 µM

Q: And the TGI [30]?
A: 4.62 µM

Q: And the TGI [31]?
A: 19.9 µM

Q: And the TGI [33]?
A: 17.8 µM

Q: What about the TGI [34] of the same compound?
A: 13 µM

Q: What about the TGI [35] of the same compound?
A: 18.6 µM

Q: What about the TGI [36] of the same compound?
A: 4.54 µM

Q: And the TGI [37]?
A: 12.1 µM

Q: What about the TGI [38] of the same compound?
A: 5.78 µM

Q: What about the TGI [39] of the same compound?
A: 4.93 µM

Q: And the TGI [40]?
A: 13.3 µM

Q: What about the TGI [41] of the same compound?
A: 3.89 µM

Q: And the TGI [42]?
A: 12 µM

Q: And the TGI [43]?
A: 5.2 µM

Q: And the TGI [56]?
A: 10.8 µM

Q: And the TGI [45]?
A: 25.3 µM

Q: What about the TGI [58] of the same compound?
A: 4.1 µM

Q: What about the TGI [46] of the same compound?
A: 14.8 µM

Q: What about the TGI [47] of the same compound?
A: 88.3 µM

Q: And the TGI [48]?
A: 5.33 µM

Q: What about the TGI [49] of the same compound?
A: 22.1 µM

Q: What about the TGI [50] of the same compound?
A: 11.4 µM

Q: And the TGI [51]?
A: 27.5 µM
